The results in this text go back to ChEMBL document CHEMBL1201862, “PubChem BioAssay data set” (2004).

Test systems include 786-0; ACHN; CAKI-1; CCRF-CEM; HCT-15; K562; LOX IMVI; M14; MDA-N; NCI-H23; NCI-H522; NCI/ADR-RES; OVCAR-3; OVCAR-5; SK-OV-3; SN12C; T47D; U-251; SR.
What all share (test): inhibition of tumour cell growth, NCI panel, 48 h

Each structure is given as a SMILES string.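 Five compound concentrations were applied to cells in 96-well plates for 48 hours; endpoints were derived by simple linear interpolation of the resulting dose-response curve. Abbreviation: GI50, concentration required for 50% inhibition of growth.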 Activity calls are given as the source filed them. Cut-off read from the data, not from the text of the source: active = GI50 up to about 1.1 µM and inactive = higher.

As to `C#CC[C@@H]1C(=O)N(Cc2ccc(OC)cc2)[C@@H](C(C)C)C(=O)N1Cc1ccc(OC)cc1`, the GI50 in the test with 786-0 is 44.9 µM (inactive); in the test with ACHN it was 45.4 µM (inactive); in the test with CAKI-1 it was > 100 µM (inactive); with CCRF-CEM, 0.458 µM (active); in the test on HCT-15, 40.5 µM; with K562 it was 32.4 µM (inactive). Also, the GI50 with LOX IMVI is 36.4 µM (inactive); in the test with M14, 36.5 µM (inactive); in the test with MDA-N, 22.9 µM (inactive); in the test with NCI-H23, 33.2 µM (inactive); in the test on NCI-H522 it was 28 µM (inactive); in the test with NCI/ADR-RES, 31.2 µM (inactive). In addition, the GI50 with OVCAR-3 was 51.4 µM (inactive); with OVCAR-5, 67.5 µM (inactive); in the test with SK-OV-3, > 100 µM (inactive); with SN12C, 53 µM (inactive); in the test with T47D it was 16.4 µM (inactive); in the test on U-251 it was 39.7 µM (inactive).

For `COc1cccc(/C=C2\S/C(=N/Nc3nc(C)c(C)s3)NC2=O)c1O`, the GI50 with 786-0 is > 100 µM (inactive); with ACHN, > 100 µM (inactive); in the test on CAKI-1 it was > 100 µM (inactive); in the test on HCT-15 it was greater than 100 µM; in the test with LOX IMVI it was 95.7 µM (inactive); with M14, > 100 µM (inactive). For the same molecule, the GI50 is > 100 µM (inactive) in the test with MDA-N; > 100 µM (inactive) with NCI-H23; > 100 µM (inactive) in the test with NCI/ADR-RES; 87.1 µM (inactive) in the test with OVCAR-3; > 100 µM (inactive) with OVCAR-5; > 100 µM (inactive) in the test with SK-OV-3. Moreover, the GI50 is > 100 µM (inactive) in the test on SN12C, 19 µM (inactive) in the test on T47D and > 100 µM (inactive) in the test on U-251.

In the case of `COc1cc2nc3n(c(=O)c2cc1OC)-c1ccc([N+](=O)[O-])cc1C3=O`, the GI50 in the test on 786-0 was 56.8 µM (inactive); with ACHN it was 39.2 µM (inactive); in the test with CAKI-1 it was 5.06 µM (inactive); in the test on HCT-15, 32.4 µM; in the test with K562, 31.5 µM (inactive); with LOX IMVI, 38.7 µM (inactive). Further, the GI50 in the test with M14 was 52.1 µM (inactive); with MDA-N, 30.5 µM (inactive); in the test on NCI-H23, 56.6 µM (inactive); with NCI-H522 it was 25.5 µM (inactive); in the test on NCI/ADR-RES, 89.5 µM (inactive); in the test on OVCAR-3, 22.6 µM (inactive). Moreover, the GI50 in the test on OVCAR-5 was > 100 µM (inactive); with SK-OV-3 it was > 100 µM (inactive); in the test on SN12C it was 66.7 µM (inactive); in the test on T47D, 0.891 µM (active); with U-251, 46.7 µM (inactive).

In the case of `CN(C)CCCN1C(=S)N(CCCN(C)C)c2c3ccccc3nc3c([N+](=O)[O-])ccc1c23`, the GI50 with 786-0 was 4.82 µM (inactive); with ACHN, 4.06 µM (inactive); in the test on CAKI-1 it was 5.96 µM (inactive); with CCRF-CEM it was 18.8 µM (inactive); in the test on HCT-15 it was 5.09 µM; in the test on K562 it was 4.3 µM (inactive). For the same molecule, the GI50 in the test on LOX IMVI was 4.42 µM (inactive); in the test on M14, 6.27 µM (inactive); with MDA-N, 7.46 µM (inactive); in the test on NCI-H23 it was 9.08 µM (inactive); in the test on NCI-H522, 1.77 µM (inactive); in the test on NCI/ADR-RES, 6.95 µM (inactive). Moreover, the GI50 with OVCAR-3 is 6.21 µM (inactive); in the test with OVCAR-5, 13.8 µM (inactive); with SK-OV-3, 15.5 µM (inactive); in the test on SN12C, 4.15 µM (inactive); in the test on T47D, 15 µM (inactive); with U-251, 6.87 µM (inactive).

Consider `S=c1nc2[nH]c3ccc(Br)cc3c2n[nH]1`, for which the GI50 with 786-0 is 35.2 µM (inactive); with CAKI-1, 69.8 µM (inactive); in the test with HCT-15, 22.1 µM; with K562 it was 47.8 µM (inactive); with LOX IMVI, 30.1 µM (inactive); in the test with M14 it was 51.5 µM (inactive). Also, the GI50 is 16.7 µM (inactive) with MDA-N; 24.3 µM (inactive) in the test with NCI-H522; 39.8 µM (inactive) in the test with NCI/ADR-RES; 41 µM (inactive) in the test with OVCAR-3; > 100 µM (inactive) in the test with OVCAR-5; > 100 µM (inactive) in the test with SK-OV-3. Also, the GI50 with SN12C was 66.1 µM (inactive); in the test with SR, 19 µM (inactive); in the test with T47D it was > 100 µM (inactive); in the test on U-251, 53.2 µM (inactive).

As to `O=C1/C(=C\c2ccc(O)cc2)CCC/C1=C/c1ccc(Cl)c(Cl)c1`, the GI50 in the test on 786-0 was 2.43 µM (inactive); in the test on ACHN, 3.52 µM (inactive); in the test on CAKI-1 it was 4.82 µM (inactive); in the test with CCRF-CEM, 0.374 µM (active); with HCT-15, 2.96 µM; with K562 it was 2.67 µM (inactive). Further, the GI50 with LOX IMVI was 1.47 µM (inactive); with M14, 2.13 µM (inactive); in the test on MDA-N it was 2.48 µM (inactive); with NCI-H23, 3.13 µM (inactive); in the test with NCI/ADR-RES it was 2.03 µM (inactive); in the test on OVCAR-3, 3.67 µM (inactive). In addition, the GI50 with OVCAR-5 is 18.8 µM (inactive); with SK-OV-3 it was 4.37 µM (inactive); in the test on SN12C it was 2.73 µM (inactive); in the test with T47D it was 11.5 µM (inactive); with U-251 it was 4.36 µM (inactive).

With `CCC(C)C1NC(=O)C2CCCN2C(=O)C(CC2CO2)OC(=O)CCNC(=O)C(C)N(C)C(=O)C(C(C)C)N(C)C1=O` (stereo not drawn), the GI50 is 0.0601 µM (active) in the test on 786-0; 0.54 µM (active) with ACHN; 0.993 µM (active) in the test with CAKI-1; 12.8 µM in the test on HCT-15; 0.0946 µM (active) in the test with K562; < 0.0208 µM (active) in the test with LOX IMVI. Also, the GI50 in the test with M14 was 0.0182 µM (active); in the test on MDA-N it was 0.181 µM (active); in the test on NCI-H522 it was 3.3 µM (inactive); in the test with NCI/ADR-RES, > 47.8 µM (inactive); in the test with OVCAR-5, 1.43 µM (inactive); with SK-OV-3, > 100 µM (inactive). Also, the GI50 in the test with SN12C is > 100 µM (inactive); with SR, < 0.024 µM (active); with T47D, 6.05 µM (inactive); in the test with U-251, 2.75 µM (inactive).

As for `CS(=O)(=O)O.[Ag]`, the GI50 in the test with 786-0 was 16.3 µM (inactive); with ACHN, 4.53 µM (inactive); in the test with CAKI-1, 17.8 µM (inactive); with CCRF-CEM, 2.46 µM (inactive); in the test with HCT-15, 18.7 µM; with K562, 2.23 µM (inactive). In addition, the GI50 in the test with LOX IMVI was 3.09 µM (inactive); in the test with M14 it was 3.17 µM (inactive); in the test with MDA-N it was 7.1 µM (inactive); in the test on NCI-H23, 23.2 µM (inactive); in the test with NCI-H522, 1.92 µM (inactive); in the test with NCI/ADR-RES, 29.8 µM (inactive). The GI50 in the test on OVCAR-3 was 23.8 µM (inactive); in the test on OVCAR-5, 19.3 µM (inactive); with SK-OV-3, 18.3 µM (inactive); in the test with SN12C, 19.1 µM (inactive); in the test with T47D it was 2.15 µM (inactive); with U-251, 16.3 µM (inactive).

As to `COc1ccc(/C(CCl)=C(\Nc2ccccc2)c2ccc(OC)c(OC)c2)cc1OC`, the GI50 was > 100 µM (inactive) in the test on 786-0; 45.3 µM (inactive) with ACHN; > 100 µM (inactive) in the test on CAKI-1; 97.9 µM (inactive) in the test on CCRF-CEM; greater than 100 µM in the test on HCT-15; 58.3 µM (inactive) with K562. Besides, the GI50 with LOX IMVI was > 100 µM (inactive); in the test on M14, > 100 µM (inactive); with MDA-N, > 100 µM (inactive); with NCI-H23, 49.3 µM (inactive); in the test on NCI-H522 it was 94 µM (inactive); in the test with NCI/ADR-RES, > 100 µM (inactive). Further, the GI50 with OVCAR-3 is > 100 µM (inactive); in the test on OVCAR-5, > 100 µM (inactive); with SK-OV-3 it was > 100 µM (inactive); in the test with SN12C, > 100 µM (inactive); in the test with T47D it was 27.7 µM (inactive); in the test with U-251, > 100 µM (inactive).

With `O=C1CCCCC/C1=C\c1ccc(Cl)cc1`, the GI50 is 32.4 µM (inactive) with 786-0; 32.1 µM (inactive) with ACHN; 37.8 µM (inactive) with CAKI-1; 22.6 µM (inactive) in the test on CCRF-CEM; 28.1 µM in the test with HCT-15; 28.9 µM (inactive) in the test with LOX IMVI. Moreover, the GI50 was 34.4 µM (inactive) with M14; 28.6 µM (inactive) in the test on MDA-N; 31.6 µM (inactive) in the test on NCI-H23; 25.4 µM (inactive) with NCI-H522; 47.8 µM (inactive) with OVCAR-3; 78.9 µM (inactive) in the test with OVCAR-5. The GI50 was 60 µM (inactive) with SK-OV-3; 35.3 µM (inactive) in the test on SN12C; 23.1 µM (inactive) in the test with SR; 37.3 µM (inactive) with T47D; 30 µM (inactive) in the test with U-251.

Take `COC(=O)c1c(C)cccc1/C=C1/Cc2c(C)cccc2C1=O`: the GI50 in the test with 786-0 is 88.7 µM (inactive); in the test on ACHN, 86.7 µM (inactive); with CAKI-1 it was > 100 µM (inactive); in the test with HCT-15 it was greater than 100 µM; with LOX IMVI it was 20.5 µM (inactive); in the test on MDA-N, > 100 µM (inactive). For the same molecule, the GI50 in the test with NCI-H23, in the test on NCI-H522, in the test on NCI/ADR-RES, in the test on OVCAR-3, in the test with OVCAR-5 and with SK-OV-3 was > 100 µM (inactive) each time. Also, the GI50 in the test with SN12C was > 100 µM (inactive); in the test on T47D it was 50.8 µM (inactive); in the test on U-251 it was 90.6 µM (inactive).

Turning to `CN(C)c1ccc(/N=N/c2ccccn2)cc1`, the GI50 with 786-0 is 49 µM (inactive); in the test with ACHN, 31.8 µM (inactive); in the test with CAKI-1, 32.2 µM (inactive); with CCRF-CEM, 4.17 µM (inactive); in the test on HCT-15, 25.2 µM; in the test with K562 it was 4.61 µM (inactive). In addition, the GI50 in the test with LOX IMVI is 57.5 µM (inactive); in the test with M14, 9.82 µM (inactive); in the test with MDA-N, 33.7 µM (inactive); in the test with NCI-H23 it was 14.2 µM (inactive); in the test with NCI-H522 it was 38.7 µM (inactive); with NCI/ADR-RES, 5.04 µM (inactive). Moreover, the GI50 in the test on OVCAR-3 was 4.21 µM (inactive); with OVCAR-5, > 100 µM (inactive); in the test on SK-OV-3 it was 38.7 µM (inactive); in the test with SN12C, 41.5 µM (inactive); with T47D, 11.2 µM (inactive); in the test on U-251 it was 4.66 µM (inactive).
